Data reported in patent publication US8476197B2, “Aminopropenoates as fungicides” (priority 2009, dated 2013).
Marks after values point to notes of the source that are not given here.

Conditions: pH 2.3

SMILES | Log P
CCOC(=O)C(C#N)=C(NC(C)C)c1cccnc1Cl [Compound 823] | 2.54
CCOC(=O)C(C#N)=C(NC(C)C(C)C)c1cccnc1-c1ccc(F)cc1 (centres unmarked) [Compound 1541] | 3.7
CCOC(=O)C(C#N)=C(Nc1ccn(C)c1SC)c1cccnc1Cl [Compound 1592] | 3.01^[c]; 3.01^[b]
CNC(=O)C(C#N)=C(NC(C)C(C)C)c1cccnc1Cl (centres unmarked) [Compound 989] | 2.41^[c]; 2.41^[b]
CCOC(=O)C(C#N)=C(NC[Si](C)(C)C)c1cccnc1Cl [Compound 1085] | 3.59

Same assay, conditions: pH 2.7

SMILES | Log P
CCNC(=O)C(C#N)=C(NC(C)c1ccccn1)c1ccnc(Cl)c1Br (racemic) [Compound 1411] | 2.55^[a]
CCOC(=O)C(C#N)=C(Nc1ccc(OC(F)F)cc1)c1cn(C)nc1C(F)F [Compound 472] | 3.04^[a]
CCOC(=O)C(C#N)=C(NCc1ccc(C)c(C)n1)c1cnn(C)c1Cl [Compound 1542] | 1.66^[a]
CCOC(=O)C(C#N)=C(NC1CCC1)c1nc(Cl)ccc1Cl [Compound 794] | 3.58^[a]
CCOC(=O)C(C#N)=C(NC(C)c1ncc(C(F)(F)F)cc1Cl)c1cccnc1Cl (mixture of isomers) [Compound 288] | 3.9^[a]
CCOC(=O)C(C#N)=C(Nc1ccc(SC)cc1)c1sccc1C(F)(F)F [Compound 462] | 4.09^[a]
C#CC(C)(C)NC(=C(C#N)C(=O)OCC)c1cn(C)nc1OC [Compound 1034] | 2.44^[a]
CCOC(=O)C(C#N)=C(Nc1ccccc1SC)c1sccc1C(F)(F)F [Compound 369] | 4.01^[a]
CCOC(=O)C(C#N)=C(NC(C)c1ccc(Cl)cc1Cl)c1cn(C)nc1C(F)F (racemic) [Compound 552] | 3.96^[a]
CCOC(=O)C(C#N)=C(Nc1ccccc1OC(C)C)c1cccnc1Cl [Compound 1168] | 3.8^[a]
CCOC(=O)C(C#N)=C(NCc1nccs1)c1nc(Cl)ccc1Cl [Compound 226] | 2.6^[a]
CCOC(=O)C(C#N)=C(Nc1ccc(N(C)C)cc1)c1cccnc1Cl [Compound 1264] | 3.17^[a]
CC(C)C(C)NC(=C(C#N)C(=O)NC1CCCC1)c1cccnc1Cl (centres unmarked) [Compound 1493] | 3.9^[a]
CCOC(=O)C(C#N)=C(NC(C(=O)NC)c1ccccc1)c1cccnc1Cl (centres unmarked) [Compound 1087] | 2.43^[a]
CCOC(=O)C(C#N)=C(NC(C)(C)CC)c1cccnc1Cl [Compound 1425] | 3.23^[a]
CCOC(=O)C(C#N)=C(Nc1ccccc1SC)c1cn(C)nc1C(F)(F)F [Compound 431] | 3.48^[a]
C=CC(COCc1ccccc1)NC(=C(C#N)C(=O)OCC)c1cccnc1Cl (centres unmarked) [Compound 1197] | 3.8^[a]
CCOC(=O)C(C#N)=C(NCc1nc(C(F)(F)F)cs1)c1sccc1Br [Compound 171] | 3.37^[a]
CCNC(=O)C(C#N)=C(NC(C)c1nccs1)c1ccnc(Cl)c1Cl (centres unmarked) [Compound 1289] | 2.57^[a]
CCOC(=O)C(C#N)=C(NC(C)c1nccs1)c1ccnc(Cl)c1Cl (centres unmarked) [Compound 1276] | 2.96
CCOC(=O)C(C#N)=C(NC(C)CC)c1cnccc1C(F)(F)F (racemic) [Compound 843] | 3.17^[a]
CCOC(=O)C(C#N)=C(NC(C)(C)C=C(Cl)Cl)c1cccnc1Cl [Compound 1271] | 3.55^[a]

SMILES | Log P
CCOC(=O)C(C#N)=C(NC(C)c1nc(C)c(C)s1)c1c(C(F)F)nn(C)c1Cl (racemic) [Compound 235] | 3.37^[a]
CCOC(=O)C(C#N)=C(NC(C)c1ccc(F)cc1)c1cn(C)nc1C(F)F (mixture of isomers) [Compound 454] | 3.21^[a]
CCOC(=O)C(C#N)=C(NC(C)COc1ccc(F)cc1)c1cn(C)nc1C(F)F (centres unmarked) [Compound 736] | 3.42^[a]
CCOC(=O)C(C#N)=C(NC(C)C)c1cccnc1Cl [Compound 823] | 2.66
CCOC(=O)C(C#N)=C(NC(C)c1nccs1)c1ccnc(CC(C)C)c1Cl (centres unmarked) [Compound 1384] | 3.64^[a]
CCOC(=O)C(C#N)=C(NCc1ccccn1)c1ccsc1Br [Compound 115] | 2.53^[a]
CCCC(C)NC(=C(C#N)C(=O)OCC)c1sccc1Br (centres unmarked) [Compound 867] | 4.16^[a]
CCOC(=O)C(C#N)=C(NC1(c2c(F)cccc2F)CC1)c1cn(C)cc1C(F)(F)F [Compound 547] | 3.85^[a]
COC(=O)C(C#N)=C(Nc1ccccc1SC)c1sc(C)nc1C(F)(F)F [Compound 428] | 3.46^[a]
CCOC(=O)C(C#N)=C(NC(C)c1ccc(C)cc1)c1sc(C)nc1C(F)(F)F (mixture of isomers) [Compound 451] | 4.36^[a]
CCOC(=O)C(C#N)=C(NC(C)C(=O)CC)c1cn(C)nc1C(F)F (racemic) [Compound 1240] | 2.47^[a]
CCOC(=O)C(C#N)=C(NC1CC2CCC1C2)c1cccnc1Cl (centres unmarked) [Compound 1082] | 3.74^[a]
CCOC(=O)C(C#N)=C(NC(C)C(C)C)c1ncc(Cl)cc1Cl (centres unmarked) [Compound 967] | 4.19^[a]
CCCCCCC(C)NC(=C(C#N)C(=O)OCC)c1sccc1Br (racemic) [Compound 814] | 5.48^[a]
CCOC(=O)C(C#N)=C(NC(C)(C)CSC)c1sccc1Br [Compound 701] | 3.73^[a]
CCOC(=O)C(C#N)=C(NC(C)c1ccc(Cl)cc1)c1conc1C (centres unmarked) [Compound 362] | 3.62^[a]
C=CCNC(=O)C(C#N)=C(NC(C)C(C)C)c1cn(C)nc1C(F)F (centres unmarked) [Compound 1008] | 2.68^[a]
CCOC(=O)C(C#N)=C(NC(C)(C)C#Cc1ccc(C#N)cc1)c1sccc1Br [Compound 1089] | 4.16^[a]
CCOC(=O)C(C#N)=C(NC(C)C(C)C)c1ccnc(Br)c1Cl (centres unmarked) [Compound 1209] | 3.94^[a]
CCOC(=O)C(C#N)=C(NC(C)CSc1cc(Cl)ccc1Cl)c1cccnc1Cl (centres unmarked) [Compound 1157] | 4.27^[a]
CCOC(=O)C(C#N)=C(NCC(c1ccccc1)C(C)C)c1cccnc1Cl (racemic) [Compound 545] | 4.21^[a]
CCOC(=O)C(C#N)=C(NC(C)c1cc(Cl)ccc1Cl)c1cccnc1Cl (racemic) [Compound 1558] | 4.13^[a]

SMILES | Log P
CCOC(=O)C(C#N)=C(NC(C)c1nc2ccccc2[nH]1)c1cccnc1Cl (racemic) [Compound 279] | 2^[a]
CCOC(=O)C(C#N)=C(NC1CC1C(F)(F)F)c1cccnc1Cl (centres unmarked) [Compound 1054] | 2.9^[a]
CCOC(=O)C(C#N)=C(Nc1ccccc1SC)c1nc(Cl)ccc1Cl [Compound 502] | 3.99^[a]
COC(=O)C(C#N)=C(NC(C)c1ccccc1)c1cccnc1Cl (centres unmarked) [Compound 404] | 2.89^[a]
CCOC(=O)C(C#N)=C(NC(C)c1c(Cl)cccc1Cl)c1scnc1Cl (centres unmarked) [Compound 1477] | 4^[a]
CCOC(=O)C(C#N)=C(NC(C)CC(C)C)c1ccsc1Br (racemic) [Compound 785] | 4.41^[a]
C=CC(COCc1ccccc1)NC(=C(C#N)C(=O)OCC)c1sccc1Br (centres unmarked) [Compound 689] | 4.31^[a]
CCOC(=O)C(C#N)=C(NC(C)C1CC1)c1ccnc(Cl)c1Cl (racemic) [Compound 902] | 3.61^[a]
CCOC(=O)C(C#N)=C(NCc1csc(-c2ccccc2)n1)c1cccnc1Cl [Compound 319] | 3.63^[a]
C=CCNC(=O)C(C#N)=C(NC(C)c1ccccn1)c1cn(C)nc1C(F)F (racemic) [Compound 1291] | 2.02^[a]
CCOC(=O)C(C#N)=C(NC(C)Cc1c[nH]c2ccccc12)c1ncc(C(F)(F)F)cc1Cl (racemic) [Compound 41] | 4.07^[a]
CCOC(=O)C(C#N)=C(NC(C)c1nccs1)c1ccnc(CC)c1Cl (centres unmarked) [Compound 1383] | 2.92^[a]
CC(NC(=C(C#N)C(=O)NC1CC1)c1cn(C)nc1C(F)F)c1ccccn1 (racemic) [Compound 1280] | 1.84^[a]
CCOC(=O)C(C#N)=C(NC(C)[Si](C)(C)C)c1cccnc1Cl (centres unmarked) [Compound 1522] | 3.87^[a]
CCOCC(COCC)NC(=C(C#N)C(=O)OCC)c1cccnc1Cl [Compound 1376] | 3.33^[a]
CCOC(=O)C(C#N)=C(NC(C)c1ccc(C)cc1)c1sccc1Br (mixture of isomers) [Compound 447] | 4.49^[a]
CCOC(=O)C(C#N)=C(Nc1ccccc1OC(C)C)c1cn(C)nc1C(F)F [Compound 471] | 3.53^[a]
C#CCNC(=O)C(C#N)=C(NC(C)c1ccccn1)c1cn(C)nc1C(F)F (racemic) [Compound 1407] | 1.89^[a]
CCOC(=O)C(C#N)=C(NC(C)C(N)=O)c1sccc1C(F)(F)F (racemic) [Compound 660] | 2.13^[a]
CCOC(=O)C(C#N)=C(NC(C)COC)c1cnn(C)c1Cl (centres unmarked) [Compound 1486] | 2.42^[a]
C#CCNC(=O)C(C#N)=C(NC(C)c1nccs1)c1cccnc1Cl (centres unmarked) [Compound 317] | 2.03^[a]

Same assay, conditions: pH 7.5

SMILES | Log P
CCOC(=O)C(C#N)=C(NC(C)c1nccs1)c1ccnc(Cl)c1Cl (centres unmarked) [Compound 1276] | 2.91
CCOC(=O)C(C#N)=C(NC(C)C)c1cccnc1Cl [Compound 823] | 2.53
C=CCOC(=O)C(C#N)=C(NC(C)C1CC1)c1cccnc1Cl (mixture of isomers) [Compound 906] | 3.08
COC(=O)C(C#N)=C(NC(C)C(C)C)c1cccnc1Cl (centres unmarked) [Compound 932] | 2.85
CCOC(=O)C(C#N)=C(Nc1ccn(C)c1SC)c1cccnc1Cl [Compound 1592] | 3.01^[c]; 3.01^[b]
CNC(=O)C(C#N)=C(NC(C)C(C)C)c1cccnc1Cl (centres unmarked) [Compound 989] | 2.41^[c]; 2.41^[b]
CCOC(=O)C(C#N)=C(NC[Si](C)(C)C)c1cccnc1Cl [Compound 1085] | 3.46
